Experimental data as given in US5093327A, “Inhibition of HIV and other retroviruses by polyoxoanions” (Du Pont Merck Pharmaceutical Company, priority 1991, dated 1992).
In brackets after ≈: the same amount, converted by molar mass.

How the values were obtained:
[1] = system: Friend leukemia virus (FLV); test: Splenomegaly assay for quantitation of Friend leukemia virus (FLV) in vivo; design: species or system Female Balb/c mice; conditions: for FLV In Vivo ED50: 50% inhibition of virus-induced splenomegaly, once a day through 7 days post-infection, 30240 min
[2] = system: HIV-IIIB in ATH8 cells; test: HIV Infectivity Assay in ATH8 Cells (50% protection from virus-induced cytopathogenesis); assay type: cell-based; conditions: for HIV Infectivity ATH8 IC50: ATH8 cells, HIV-IIIB, 10 days
[3] = system: Friend leukemia virus (FLV); test: XC plaque assay for quantitation of Friend leukemia virus (FLV) in vitro; assay type: cell-based; conditions: for FLV In Vitro IC50: XC plaque formation
[4] = system: Rauscher leukemia virus (RLV); test: Splenomegaly assay for quantitation of Rauscher leukemia virus (RLV) in vivo; design: species or system Female BALB/c mice; conditions: 50% inhibition of virus-induced splenomegaly, ip, once a day through 14 days post-infection; 30240 min
Text: Treatment is given once a day, continuing through 14 days post-infection. Ribavirin is used as a positive control compound. Uninfected, vehicle-treated mice serve as normal spleen controls, while infected, vehicle-treated mice serve as infected spleen controls. At 21 days post-infection the mice are sacrificed and spleens are surgically excised and weighed.

[5] = system: HIV-IIIB in H9 cells (reverse transcriptase); test: HIV Infectivity Assay in H9 Cells (HIV reverse transcriptase production); assay type: cell-based; conditions: day 10
[6] = system: FLV; test: Alternate dosing regimen with combination therapy with AZT against FLV-induced splenomegaly; assay type: in vivo, mice
[7] = system: FLV; test: Combination therapy with AZT against FLV-induced splenomegaly; assay type: in vivo, mice
Experimental: (§1) Female Balb/c mice are infected intraperitoneally with 0.2 ml of FLV suspension at a concentration predetermined to induce spleen weights of 1-2 grams in vehicle-treated control mice at 21 days post-infection. Beginning 24 hours post-infection, mice (10/group) are treated with 10-100 mg/kg of test compound in Sterile Normal Saline for injection (USP) as a carrier for either intraperitoneal, subcutaneous, intravenous or oral route administration. Treatment is given once a day, continuing through 7 days post-infection. AZT is used as a positive control compound. Uninfected, vehicle-treated mice serve as normal spleen controls, while virus-infected, vehicle-treated mice serve as infected spleen controls. At 21 days post-infection the mice are sacrificed and spleens are surgically excised and weighed. Results are expressed as Treated/Control (T/C), where control represents the means spleen weight of FLV-infected, vehicle-treated mice and is arbitrarily set to 1.0. The doses of test compounds required to inhibit virus-induced splenomegaly by 50% (ED50) are shown in Table 1 as compared to AZT the control compound.
Since AZT is currently approved for the clinical treatment of HIV/AIDS, a combination therapy of AZT and the compounds of the present invention for the treatment of retrovirus and, particularly HIV/AIDS, may be a favorable alternative treatment plan. In order to determine how effective the compounds would be if given together, the following study was done.
FLV-infected mice are treated with compound 1 (0.8-20 mg/kg), alone or in combination with AZT (8-200 mg/kg). Starting one day post-infection compounds are given once daily for seven days. Compound 1 is administered subcutaneously (sc) while AZT is administered intraperitoneally (ip) in order not to physically mix the compounds at the same site.

[8] = system: SIV; test: Activity against SIV; assay type: cell-based
[9] = system: FLV; test: Compound 1/Poly-I:C combination therapy against FLV-induced splenomegaly; assay type: in vivo, mice; conditions: for reduction of splenomegaly: individual dosing
Experimental: as §1
FLV-infected mice are treated with compound 1 (1.25-20.00 mg/kg S.C. daily x 7d beginning one day post-infection alone or in combination with Poly-I:C (0.31-5.0 mg/kg ip daily x 7d beginning one day post-infection. Results are shown in Table 4.

[10] = system: LPBM-5; test: Activity against LPBM-5 in vivo

1,2-K5 [Compound 2, 1,2-K5 [PV2 W10 O40]]
FLV In Vivo ED50 [1]: 10 to 20 mg/kg
HIV Infectivity ATH8 IC50 [2]: 1.0 µg/mL
FLV In Vitro IC50 [3]: 2.5 µg/mL
RLV In Vivo ED50 [4]: 15 to 20 mg/kg
HIV Infectivity RT/H9 IC50 [5]: < 10 µg/mL

Cc1cn([C@H]2C[C@H](N=[N+]=[N-])[C@@H](CO)O2)c(=O)[nH]c1=O [AZT, 3'-Azido-3'-deoxythymidine, reference compound]
ED50 ([1]; Mus musculus, 504 h, read-out: FLV In Vivo ED50): 100 mg/kg
T/C (spleen weight) ([6]; AZT 12.5 mg/kg ip daily x 7 days, no Cpd 1 (Control)): 0.93
T/C (spleen weight) ([6]; AZT 50 mg/kg ip daily x 7 days, no Cpd 1 (Control)): 0.71
T/C (spleen weight) ([6]; AZT 200 mg/kg ip daily x 7 days, no Cpd 1 (Control)): 0.45
reduction in splenomegaly ([6]; AZT alone): 30-50%
IC50 ([2]; Human immunodeficiency virus 1, IIIB, ATH-8, 240 h, read-out: HIV Infectivity ATH8 IC50): 0.005 µg/mL (≈ 0.0187 µM)
in vitro potency of AZT relative to the polyoxoanions ([2]; in vitro, data in Table 1): more potent in vitro than the polyoxoanions of the present invention
IC50 ([3]; read-out: FLV In Vitro IC50): 0.005 µg/mL (≈ 0.0187 µM)
T/C (spleen weight) ([7]; AZT 8 mg/kg ip, Cpd 1 0, days 1-7): 0.83
T/C (spleen weight) ([7]; AZT 40 mg/kg ip, Cpd 1 0, days 1-7): 0.69
T/C (spleen weight) ([7]; AZT 200 mg/kg ip, Cpd 1 0, days 1-7): 0.46
percent reduction in splenomegaly ([7]; AZT alone at 200 mg/kg): about 50%

K6 [Compound 1, K6 [BVW11 O40]]
IC50 against SIV [8]: < 1 µg/mL
FLV In Vivo ED50 [1]: 10 to 20 mg/kg
T/C (spleen weight) ([6]; Cpd 1 80 mg/kg S.C. days 1 & 10, AZT 0): 0.21
T/C (spleen weight) ([6]; Cpd 1 80 mg/kg S.C. days 1 & 14, AZT 0): 0.17
T/C (spleen weight) ([6]; Cpd 1 80 mg/kg S.C. days 1 & 17, AZT 0): 0.5
efficacy of two doses administered alone ([6]; two doses of compound 1 alone, 10-17 days apart): efficacious
HIV Infectivity ATH8 IC50 [2]: 1.0 µg/mL
FLV In Vitro IC50 [3]: 1 µg/mL
T/C (spleen weight) ([9]; Cpd 1 1.25 mg/kg S.C. daily x 7 days, Poly-I:C 0): 0.8
T/C (spleen weight) ([9]; Cpd 1 5.0 mg/kg S.C. daily x 7 days, Poly-I:C 0): 0.58
T/C (spleen weight) ([9]; Cpd 1 20.0 mg/kg S.C. daily x 7 days, Poly-I:C 0): 0.33
reduction of splenomegaly ([9]; compound 1 20 mg/kg): 60%
T/C (spleen weight) ([7]; Cpd 1 0.8 mg/kg sc, AZT 0, days 1-7): 1.0
T/C (spleen weight) ([7]; Cpd 1 4.0 mg/kg sc, AZT 0, days 1-7): 0.94
T/C (spleen weight) ([7]; Cpd 1 20.0 mg/kg sc, AZT 0, days 1-7): 0.52
percent reduction in splenomegaly ([7]; compound 1 alone at 20 mg/kg): about 50%
RLV In Vivo ED50 [4]: 10 to 20 mg/kg
HIV Infectivity RT/H9 IC50 [5]: < 10 µg/mL
ED50 against LPBM-5 in vivo [10]: 10 to 20 mg/kg

K6 [Compound 5, K6 [SiTiW11 O40]]
FLV In Vivo ED50 [1]: 20 mg/kg
HIV Infectivity ATH8 IC50 [2]: 3.2 µg/mL
FLV In Vitro IC50 [3]: 3 µg/mL

K7 [Compound 3, K7 [BV^IV W11 O40]]
FLV In Vivo ED50 [1]: 7.5 mg/kg
HIV Infectivity ATH8 IC50 [2]: 1.5 µg/mL
FLV In Vitro IC50 [3]: 0.1 µg/mL
HIV Infectivity RT/H9 IC50 [5]: < 10 µg/mL

K7 [Compound 6, K7 [PTi2 W10 O40]]
FLV In Vivo ED50 [1]: IA (Inactive)
HIV Infectivity ATH8 IC50 [2]: 5.6 µg/mL
FLV In Vitro IC50 [3]: 5 µg/mL

K9 (NH4)H2 [Compound 8, K9 (NH4)H2 [(OCe)3 (PW9 O34)2]]
FLV In Vivo ED50 [1]: 10 to 20 mg/kg
HIV Infectivity ATH8 IC50 [2]: 1.0 µg/mL
FLV In Vitro IC50 [3]: 10 µg/mL

Na12 [Compound 7, Na12 [P2 W15 O62]]
FLV In Vivo ED50 [1]: > 20 mg/kg
HIV Infectivity ATH8 IC50 [2]: 2.6 µg/mL

PolyInosinic-PolyCytidylic Acid [Poly-I:C, reference compound]
T/C (spleen weight) ([9]; Poly-I:C 0.31 mg/kg ip daily x 7 d, Cpd 1 0): 1.2
T/C (spleen weight) ([9]; Poly-I:C 1.25 mg/kg ip daily x 7 d, Cpd 1 0): 1.1
T/C (spleen weight) ([9]; Poly-I:C 5.0 mg/kg ip daily x 7 d, Cpd 1 0): 0.39
reduction of splenomegaly ([9]; Poly-I:C 5 mg/kg): 60%

β-Cs5 [Compound 4, β-Cs5 [PV2 W10 O40]]
FLV In Vivo ED50 [1]: 10 to 20 mg/kg
HIV Infectivity ATH8 IC50 [2]: 1.6 µg/mL
FLV In Vitro IC50 [3]: 7 µg/mL
HIV Infectivity RT/H9 IC50 [5]: < 10 µg/mL
